Laboratory results from US4389412A, “Substituted cyclopropanecarboxylic acid esters and pesticidal compositions containing the same as active ingredient” (priority 1979, dated 1983).
Values after ≈ are worked out from the molar mass of the structure shown. Like-named read-outs stand apart in the source and are kept apart here.

What was measured:
[1] = test system: green rice leafhoppers (Nephotettix cincticeps Uhler); assay: Mortality test with green rice leafhoppers by topical application method; details: Nephotettix cincticeps, in Oryza sativa, 24 h; for LD50: read-out: LD50 (median lethal dose), topical, green rice leafhoppers; for mortality at 10 ng: read-out: Pesticidal effect, green rice leafhopper
Experimental: Mortality test with green rice leafhoppers (Nephotettix cincticeps Uhler) by topical application method
Then, the insects were kept at 25° C. with access to rice plant seedlings. The insects were used in groups of 15 individuals each.

[2] = test system: rice stem borers (Chilo suppressalis Walker); assay: Mortality test with rice stem borers by topical application method; type: in vivo; details: 24 h; for mortality at 0.001 mg: read-out: Pesticidal effect, rice stem borer
Experimental: Mortality test with rice stem borers (Chilo suppressalis Walker) by topical application method
Using a microsyringe, 0.5 μl of the above solution was applied to the thoracic abdominal region of each final-instar larva of rice stem borer (Chilo suppressalis Walker). […] The test larvae were used in groups of 20 individuals each.

[3] = test system: tobacco cutworms (Prodenia litura Fabricius); assay: Mortality test with tobacco cutworms by topical application method; type: in vivo; details: 24 h
Experimental: Mortality test with tobacco cutworms (Prodenia litura Fabricius) by topical application method
Using a microsyringe, 0.5 μl of the above solution was dripped onto the thoracic adbominal region of each of 3-instar tobacco cutworm (Prodenia litura Fabricius) larvae. […] The test larvae were used in groups of 20 individuals each.

[4] = Fish toxicity test with carp; type: in vivo, Cyprinus carpio L; details: carp, water
Summary of the method: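 Compound in acetone with Tween-20 dispersed in 50 L aerated water at a set concentration; five carp (about 6 g, 6 cm) exposed at 21±1° C. Deaths checked after 48 h, and TLm (median tolerance limit, ppm) determined.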

[5] = Toxicity test with water-fleas; type: in vivo, Daphnia pulex; details: water, 25±1° C., read-out: TLm, Water-flea (6 hrs.)
[6] = test system: brown planthoppers (Nilaparvata lugens Stal); assay: Utility Example-1: LC50 on adult brown planthoppers on dipped rice plants; type: in vivo; details: Nilaparvata lugens, 24 h, 25° C., read-out: Pesticidal activity LC50
Summary of the method: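 Rice plants 4 weeks from sowing were dipped in water-diluted 1% emulsifiable concentrate at set concentrations and air-dried. Thirty adult N. lugens were caged on each pot, held at 25 °C.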

[7] = test system: small brown planthoppers (Laodelphax striatellus Fallen); assay: Utility Example-3: spray on rice plants, small brown planthoppers; type: in vivo; details: 7 ml/pot, 24 hours
Experimental: A 30% emulsifiable concentrate of each of the cis- and trans-isomers and a 50:50 mixture of the cis- and trans-isomers of Compound (1) and of Compound (2) as prepared by the procedure described in Formulation Example-1 was diluted with water to a concentration of 80 ppm as active compound. Rice plants 4 weeks after sowing in pots (each pot 6 cm in diameter, 7 seedlings) were sprayed with the above diluted solution at the rate of 7 ml/pot and, after drying in the air, each pot was covered with a wire-mesh cage. Then, 30 adult small brown planthoppers (Laodelphax striatellus Fallen) were released into the cage. The pots were kept in a constant-temperature chamber at 25° C. […] In all groups, the mortality was not less than 90%.

[8] = test system: green rice leafhoppers (Nephotettix cincticeps Uhler); assay: Utility Example-4: 0.2% dust on rice seedlings, green rice leafhoppers; type: in vivo; details: 5 kg per 10 ares, 24 hours, resistant to organophosphorus and carbamate pesticides
Excerpt: A 0.2% dust preparation of each of the cis- and trans-isomers and a 50:50 mixture of the cis- and trans-isomers of Compound (1) and of Compound (2) as prepared by the procedure described in Formulation Example-3 was applied to rice seedlings by means of a bell-jar duster at the rate of 5 kg per 10 ares. […] In all cases, the mortality was not less than 90%.

fish = assay: Fish toxicity safety factor (TLm divided by maximum concentration in cover water); set-up: species or system carp
Summary of the method: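 Calculated index: carp TLm (ppm) divided by the maximum compound concentration expected in paddy cover water. That concentration assumes 100 l of solution at the pest LC50 applied per 10 ares onto 5 cm deep cover water, all of it entering the water.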

[9] = 48 hrs., 21±1° C., read-out: TLm, Carp (48 hrs.)
[10] = read-out: Pesticidal effect, tobacco cutworm

| Compound | mortality at 0.01 µg/female [1] [%] | mortality at 0.1 µg/female [1] [%] | mortality at 1 µg/female [1] [%] | LD50 [1] [mg/kg] | mortality at 1 µg/larva [2] [%] | mortality at 10 µg/larva [2] [%] | mortality at 0.0001 mg [3] [%] | LC50 at 48 h [4, 9] [µg/mL] | LC50 at 6 h [5] [µg/mL] | LC50 [6] [µg/mL] | mortality at 80 ppm [7] [%] | mortality [8] | LC50 at 48 h ([4]; Table 12 and text of Utility Example-1, read-out: Toxicity to fish TLm) [µg/mL] | concentration which kills 50% of pests as fraction of concentration which kills 50% of fish (fish) | mortality at 10 ng [1] [%] | mortality at 0.001 mg [2] [%] | mortality at 0.0001 mg [3, 10] [%] | Fish toxicity safety factor (fish; TLm / maximum concentration in cover water at LC50 application (100 l per 10 ares, 5 cm depth)) |
| --- | --- | --- | --- | --- | --- | --- | --- | --- | --- | --- | --- | --- | --- | --- | --- | --- | --- | --- |
| CC1(C)[C@@H](C=C(Cl)Cl)[C@@H]1C(=O)OCc1cccc(Oc2ccc(Cl)cc2)c1 (relative stereo) [Compound (1) trans-, 3-(4-chlorophenoxy)benzyl trans-2,2-dimethyl-3-(2,2-dichlorovinyl)cyclopropanecarboxylate] | 100 | 100 | 100 | 0.68 | 85 | 100 | 100 | 4.5 (≈ 10.6 µM) | > 40 | 650 (≈ 1530 µM) | ≥ 90 | not less than 90% | – | – | – | – | – | – |
| C#CC(OC(=O)[C@@H]1[C@H](C=C(Cl)Cl)C1(C)C)c1cccc(Oc2ccc(Cl)cc2)c1 (relative stereo) [Compound (2) cis-] | 100 | 100 | 100 | 0.44 | 100 | 100 | 100 | 0.83 (≈ 1.85 µM) | > 40 | 200 (≈ 445 µM) | ≥ 90 | not less than 90% | – | – | – | – | – | – |
| C#CC(OC(=O)[C@@H]1[C@@H](C=C(Cl)Cl)C1(C)C)c1cccc(Oc2ccc(Cl)cc2)c1 (relative stereo) [Compound (2) trans-] | 100 | 100 | 100 | 0.45 | 100 | 100 | 100 | > 10 | > 40 | 180 (≈ 400 µM) | ≥ 90 | not less than 90% | > 10 | less than 1/28 | – | – | – | – |
| C#CC(OC(=O)C1C(C=C(Cl)Cl)C1(C)C)c1cccc(Oc2ccc(Cl)cc2)c1 (stereo not drawn) [Compound (2) cis-/trans- = 50:50, 3-(4-chlorophenoxy)-α-ethynylbenzyl 2,2-dimethyl-3-(2,2-dichlorovinyl)cyclopropanecarboxylate] | 100 | 100 | 100 | 0.44 | 100 | 100 | 100 | – | > 40 | 190 (≈ 422 µM) | ≥ 90 | not less than 90% | – | – | 100 | 100 | 100 | 7.4 |
| CC1(C)C(C=C(Cl)Cl)C1C(=O)OCc1cccc(Oc2ccccc2)c1 (centres unmarked) [Compound (B), Permethrin] | 80 | 100 | 100 | 1.25 | 95 | 100 | 85 | 0.015 (≈ 0.0383 µM) | – | 700 (≈ 1790 µM) | – | – | – | – | 80 | 95 | 85 | – |
